{
  "source": "patent US7304186B2",
  "about": "“Synthetic method and novel chemical compounds” (Charterhouse Therapeutics Ltd., priority 2002, dated 2007)",
  "key": {"NF-κB": {"tested_on": "NF-κB", "assay": "EMSA of NF-κB DNA-binding activity in TPA-stimulated Jurkat T cells", "type": "cell-based, Human", "settings": "for NF-κB inhibition (in words): TPA-stimulated, EMSA", "protocol": "(§1) Human lymphoblastoid Jurkat T cells were grown at 37° C. in a 5% CO2 atmosphere in RPM1 1640 medium (GIBCO BRL, Gaithersburg, Md., United States of America) supplemented with 10% fetal calf serum (FCS, Hyclone Europe Ltd, United Kingdom), 2 mM glutamine and antibiotics according to the method described by A. Rossi et al.^48 The test compound was stored as a 100% ethanolic stock solution (100 mM) or in dimethylsulfoxide (100 mM) and diluted to the appropriate concentration in culture medium at the time of use. Cells were treated with different concentrations of test compound for 1 hour and then stimulated with 12-O-tetradecanoylphorbol-13-acetate (TPA, 25 ng/ml), which is a strong inducer of NF-κB. Control cells received an equal amount of control diluent. After 3 hours, whole-cell extracts were prepared and subjected to analysis of DNA-binding activity by EMSA (Electrophoretic Mobility Shift Assay) for detection of HSF or NF-κB activation, according to the method described by A. Rossi et al.^48\n(§2) Specificity of protein-DNA complexes was verified by immunoreactivity with polyclonal antibodies specific for p65 (Rel A) or for HSF-1, for NF-κB and HSF respectively. Quantitative evaluation of NF-κB- and HSF-DNA complex formation was determined by Molecular Dynamics PhosphorImager (MDP) analysis and was expressed in arbitrary units, as described by A. Rossi et al.^49 The results for (−)-Δ^12,14-15-deoxy-PG-J2 are shown in FIG. 1."}, "[1]": {"tested_on": "parainfluenza Sendai virus (SV)", "assay": "Sendai virus replication in 37RC cells, virus yield by HAU titration", "type": "cell-based", "settings": "for IC50: read-out: ID50 (50% inhibitory dose/concentration)", "protocol": "(§3) Monkey kidney 37RC cells were grown at 37° C. under the conditions described above for human lymphoblastoid Jurkat T cells. The parainfluenza Sendai virus (SV) was grown in the allantoic cavity of 10 day-old embryonated eggs. Viral titre was expressed in haemagglutinating units (HAU) per ml; […]. Virus yield at 24 hours after infection was determined in the supernatant of infected cells by HAU titration.\n(§4) The ID50 (the 50% inhibitory dose/concentration) value at 24 hours and the TD100 (the dose or concentration at which a tested compound is 100% toxic to uninfected cells, determined visually by microscopy) for both (−)-Δ^12,14-15-deoxy-PG-J2 and for compound CTC-150 were measured and the following results were obtained."}, "Monkey kidney 37RC cells": {"tested_on": "Monkey kidney 37RC cells", "type": "cell-based", "protocol": "as §3, §4"}, "HSF": {"tested_on": "HSF", "assay": "EMSA of HSF DNA-binding activity in TPA-stimulated Jurkat T cells", "type": "cell-based, Human", "settings": "1 hour pre-treatment, TPA 25 ng/ml, extracts after 3 hours", "protocol": "as §1, with “After 3 hours, whole-cell extracts were prepared and subjected to analysis of DNA-binding activity by EMSA (Electrophoretic Mobility Shift Assay) for detection of HSF or NF-κB activation, according to the method described by A. Rossi et al.^48” left out\nas §2"}},
  "note": "Like-named read-outs stand apart in the source and are kept apart here.",
  "data": [
    {"smiles": "CCCCC/C=C/C=C1/C(=O)C=CC1C/C=C\\CCCC(=O)O", "note": "(stereo not drawn) [(−)-Δ^12,14-15-deoxy-PG-J2, reference compound]", "values": [
      {"measurement": "NF-κB inhibition (in words)", "setting": "NF-κB", "result": "potent inhibitor of NF-κB"},
      {"measurement": "inhibition of Sendai virus replication (in words)", "setting": "[1]; 37RC cells, virus yield at 24 hours", "result": "potent inhibitor of Sendai virus replication"},
      {"measurement": "IC50", "setting": "[1]; virus yield at 24 hours after infection, 37RC cells, 5 HAU/10^5 cells", "result": 3, "unit": "µM"},
      {"measurement": "TD100 (concentration at which compound is 100% toxic to uninfected cells)", "setting": "Monkey kidney 37RC cells; uninfected 37RC cells, visually by microscopy", "result": 50, "unit": "µM"}
    ]},
    {"smiles": "CC1C=CC(=O)/C1=C/c1ccccc1", "note": "(stereo not shown) [CTC-150, 4-methyl-5-[1-phenyl-meth-(E)-ylidene]-cyclopent-2-enone]", "values": [
      {"measurement": "concentration required to give an HSF activation to 200% of its original level", "setting": "HSF", "result": 0.02, "unit": "µM"},
      {"measurement": "IC50", "setting": "NF-κB; Homo sapiens, 1 hour pre-treatment, TPA 25 ng/ml, extracts after 3 hours, read-out: concentration required to give an NF-κB inhibition to 50% of its original level (IC50)", "result": 7, "unit": "µM"},
      {"measurement": "NF-κB inhibition (in words)", "setting": "NF-κB", "result": "potent inhibitor of NF-κB"},
      {"measurement": "IC50", "setting": "[1]; Respirovirus muris, 24 h", "result": 0.7, "unit": "µM"},
      {"measurement": "antiviral activity relative to (−)-Δ^12,14-15-deoxy-PG-J2 (times more active)", "setting": "[1]; ratio of ID50 values, Sendai virus in 37RC cells", "result": "over 4"},
      {"measurement": "TD100 (concentration at which compound is 100% toxic to uninfected cells)", "setting": "Monkey kidney 37RC cells; monkey", "result": ">50", "unit": "µM"}
    ]}
  ]
}
